Laboratory results: PubChem BioAssay AID1259407 (Chemical Carcinogenesis Research Information System (CCRIS), 2018)
Calls of active or inactive are those of the source. The rule behind the calls is not given here.

Test system: CCRIS mutagenicity, Ames/micronucleus/aberration tests
Test: CCRIS mutagenicity studies
[1] = Test System: AMES SALMONELLA TYPHIMURIUM, Strain/Indicator: TA97, Metabolic Activation: NONE, Method: PREINCUBATION
[2] = Test System: AMES SALMONELLA TYPHIMURIUM, Strain/Indicator: TA98, Metabolic Activation: NONE, Method: PREINCUBATION
[3] = Test System: AMES SALMONELLA TYPHIMURIUM, Strain/Indicator: TA100, Metabolic Activation: NONE, Method: PREINCUBATION
[4] = Test System: AMES SALMONELLA TYPHIMURIUM, Strain/Indicator: TA1535, Metabolic Activation: NONE, Method: PREINCUBATION
[5] = Test System: AMES SALMONELLA TYPHIMURIUM, Strain/Indicator: TA102, Metabolic Activation: NONE, Method: PREINCUBATION

Measured: mutagenic call

N#CCO
inactive: Test System: AMES SALMONELLA TYPHIMURIUM, Strain/Indicator: TA97, Metabolic Activation: HAMSTER, LIVER, S-9, AROCLOR 1254 (10%), Method: PREINCUBATION inactive; negative | Test System: AMES SALMONELLA TYPHIMURIUM, Strain/Indicator: TA97, Metabolic Activation: HAMSTER, LIVER, S-9, AROCLOR 1254 (30%), Method: PREINCUBATION inactive; negative | [1] inactive; negative | Test System: AMES SALMONELLA TYPHIMURIUM, Strain/Indicator: TA97, Metabolic Activation: RAT, LIVER, S-9, AROCLOR 1254 (10 OR 30%), Method: PREINCUBATION inactive; negative | Test System: AMES SALMONELLA TYPHIMURIUM, Strain/Indicator: TA98, Metabolic Activation: HAMSTER, LIVER, S-9, AROCLOR 1254 (10%), Method: PREINCUBATION inactive; negative | Test System: AMES SALMONELLA TYPHIMURIUM, Strain/Indicator: TA98, Metabolic Activation: HAMSTER, LIVER, S-9, AROCLOR 1254 (30%), Method: PREINCUBATION inactive; negative | [2] inactive; negative | Test System: AMES SALMONELLA TYPHIMURIUM, Strain/Indicator: TA98, Metabolic Activation: RAT, LIVER, S-9, AROCLOR 1254 (10%), Method: PREINCUBATION inactive; negative | Test System: AMES SALMONELLA TYPHIMURIUM, Strain/Indicator: TA98, Metabolic Activation: RAT, LIVER, S-9, AROCLOR 1254 (30%), Method: PREINCUBATION inactive; negative | Test System: AMES SALMONELLA TYPHIMURIUM, Strain/Indicator: TA100, Metabolic Activation: HAMSTER, LIVER, S-9, AROCLOR 1254 (10%), Method: PREINCUBATION inactive; negative | Test System: AMES SALMONELLA TYPHIMURIUM, Strain/Indicator: TA100, Metabolic Activation: HAMSTER, LIVER, S-9, AROCLOR 1254 (30%), Method: PREINCUBATION inactive; negative | [3] inactive; negative | Test System: AMES SALMONELLA TYPHIMURIUM, Strain/Indicator: TA100, Metabolic Activation: RAT, LIVER, S-9, AROCLOR 1254 (10%), Method: PREINCUBATION inactive; negative | Test System: AMES SALMONELLA TYPHIMURIUM, Strain/Indicator: TA100, Metabolic Activation: RAT, LIVER, S-9, AROCLOR 1254 (30%), Method: PREINCUBATION inactive; negative | Test System: AMES SALMONELLA TYPHIMURIUM, Strain/Indicator: TA1535, Metabolic Activation: HAMSTER, LIVER, S-9, AROCLOR 1254 (10%), Method: PREINCUBATION inactive; negative | Test System: AMES SALMONELLA TYPHIMURIUM, Strain/Indicator: TA1535, Metabolic Activation: HAMSTER, LIVER, S-9, AROCLOR 1254 (30%), Method: PREINCUBATION inactive; negative | [4] inactive; negative | Test System: AMES SALMONELLA TYPHIMURIUM, Strain/Indicator: TA1535, Metabolic Activation: RAT, LIVER, S-9, AROCLOR 1254 (10%), Method: PREINCUBATION inactive; negative | Test System: AMES SALMONELLA TYPHIMURIUM, Strain/Indicator: TA1535, Metabolic Activation: RAT, LIVER, S-9, AROCLOR 1254 (30%), Method: PREINCUBATION inactive; negative

O=C1NS(=O)(=O)c2ccccc21
inactive: Test System: AMES SALMONELLA TYPHIMURIUM, Strain/Indicator: TA97A, Metabolic Activation: NONE, Method: PREINCUBATION inactive; negative | Test System: AMES SALMONELLA TYPHIMURIUM, Strain/Indicator: TA97A, Metabolic Activation: RAT, LIVER, S-9, AROCLOR 1254, Method: PREINCUBATION inactive; negative | [5] inactive; negative | Test System: AMES SALMONELLA TYPHIMURIUM, Strain/Indicator: TA102, Metabolic Activation: RAT, LIVER, S-9, AROCLOR 1254, Method: PREINCUBATION inactive; negative

O=C1C=CC(=O)c2c(O)c(Cl)c(Cl)c(O)c21
inactive: [1] inactive; negative | [2] inactive; negative | Test System: AMES SALMONELLA TYPHIMURIUM, Strain/Indicator: TA98, Metabolic Activation: RAT, LIVER, S-9, PHENOBARBITAL AND 5,6-BENZOFLAVONE, Method: PREINCUBATION inactive; negative | [3] inactive; negative | Test System: AMES SALMONELLA TYPHIMURIUM, Strain/Indicator: TA100, Metabolic Activation: RAT, LIVER, S-9, PHENOBARBITAL AND 5,6-BENZOFLAVONE, Method: PREINCUBATION inactive; negative | [5] inactive; negative | [4] inactive; negative | Test System: AMES SALMONELLA TYPHIMURIUM, Strain/Indicator: TA1535, Metabolic Activation: RAT, LIVER, S-9, PHENOBARBITAL AND 5,6-BENZOFLAVONE, Method: PREINCUBATION inactive; negative | Test System: AMES SALMONELLA TYPHIMURIUM, Strain/Indicator: TA1537, Metabolic Activation: NONE, Method: PREINCUBATION inactive; negative | Test System: AMES SALMONELLA TYPHIMURIUM, Strain/Indicator: TA1538, Metabolic Activation: NONE, Method: PREINCUBATION inactive; negative | Test System: AMES SALMONELLA TYPHIMURIUM, Strain/Indicator: TA1538, Metabolic Activation: RAT, LIVER, S-9, PHENOBARBITAL AND 5,6-BENZOFLAVONE, Method: PREINCUBATION inactive; negative | Test System: AMES SALMONELLA TYPHIMURIUM, Strain/Indicator: TA2637, Metabolic Activation: NONE, Method: PREINCUBATION inactive; negative
active: Test System: AMES SALMONELLA TYPHIMURIUM, Strain/Indicator: TA97, Metabolic Activation: RAT, LIVER, S-9, PHENOBARBITAL AND 5,6-BENZOFLAVONE, Method: PREINCUBATION active; positive | Test System: AMES SALMONELLA TYPHIMURIUM, Strain/Indicator: TA102, Metabolic Activation: RAT, LIVER, S-9, PHENOBARBITAL AND 5,6-BENZOFLAVONE, Method: PREINCUBATION active; positive | Test System: AMES SALMONELLA TYPHIMURIUM, Strain/Indicator: TA104, Metabolic Activation: NONE, Method: PREINCUBATION active; positive | Test System: AMES SALMONELLA TYPHIMURIUM, Strain/Indicator: TA104, Metabolic Activation: RAT, LIVER, S-9, PHENOBARBITAL AND 5,6-BENZOFLAVONE, Method: PREINCUBATION active; positive | Test System: AMES SALMONELLA TYPHIMURIUM, Strain/Indicator: TA1537, Metabolic Activation: RAT, LIVER, S-9, PHENOBARBITAL AND 5,6-BENZOFLAVONE, Method: PREINCUBATION active; positive | Test System: AMES SALMONELLA TYPHIMURIUM, Strain/Indicator: TA2637, Metabolic Activation: RAT, LIVER, S-9, PHENOBARBITAL AND 5,6-BENZOFLAVONE, Method: PREINCUBATION active; positive

O=C(c1ccccc1)[C@H]1O[C@H]1c1ccc(F)cc1
inactive: Test System: AMES SALMONELLA TYPHIMURIUM, Strain/Indicator: TA98, Metabolic Activation: NONE, Method: PREINCUBATION (PHOSPHATE-BUFFERED KCL OR SOLUTE-FREE WATER MEDIA) inactive; negative | Test System: AMES SALMONELLA TYPHIMURIUM, Strain/Indicator: TA98, Metabolic Activation: NONE, Method: STANDARD PLATE inactive; negative | Test System: AMES SALMONELLA TYPHIMURIUM, Strain/Indicator: TA98, Metabolic Activation: RAT, LIVER, S-9, AROCLOR 1254, Method: STANDARD PLATE inactive; negative | Test System: AMES SALMONELLA TYPHIMURIUM, Strain/Indicator: TA100, Metabolic Activation: NONE, Method: PREINCUBATION (PHOSPHATE-BUFFERED KCL OR SOLUTE-FREE WATER MEDIA) inactive; negative | Test System: AMES SALMONELLA TYPHIMURIUM, Strain/Indicator: TA100, Metabolic Activation: NONE, Method: STANDARD PLATE inactive; negative | Test System: AMES SALMONELLA TYPHIMURIUM, Strain/Indicator: TA100, Metabolic Activation: RAT, LIVER, S-9, AROCLOR 1254, Method: STANDARD PLATE inactive; negative | Test System: AMES SALMONELLA TYPHIMURIUM, Strain/Indicator: TA104, Metabolic Activation: NONE, Method: PREINCUBATION (PHOSPHATE-BUFFERED KCL OR SOLUTE-FREE WATER MEDIA) inactive; negative | Test System: CHINESE HAMSTER V-79, Strain/Indicator: V-79 (HPRT)/6-THIOGUANINE, Metabolic Activation: NONE inactive; negative
